PubChem BioAssay AID192 (DTP/NCI, 2004)
Where “and” joins values, the source holds several entries; their conditions need not be identical. Equal values may be shown once. Toxic doses and inconclusive results are not listed. Peptide text beside a SMILES is read from it. * marks the point of attachment. Cbz = O=C(OCc1ccccc1)*

Test system: BDF1 mice, B16 melanoma ip, median survival T/C
Test: NCI In Vivo Anticancer Drug Screen. Data for tumor model B16 Melanoma (intraperitoneal) in B6D2F1 (BDF1) mice
Conditions: endpoint: median survival time, higher = longer survival
Summary of the method: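 In this screen, activity was judged from survival or tumor size in treated versus vehicle-treated tumor-bearing mice, reported as T/C.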

[1] = dose: 12.5 mg/kg/injection, schedule: Q01DX009 (ip), vehicle: Klucel (hydroxypropylcellulose) (HPC)
[2] = dose: 25.0 mg/kg/injection, schedule: Q01DX009 (ip), vehicle: Klucel (hydroxypropylcellulose) (HPC)
[3] = dose: 50.0 mg/kg/injection, schedule: Q01DX009 (ip), vehicle: Klucel (hydroxypropylcellulose) (HPC)
[4] = dose: 200.0 mg/kg/injection, schedule: Q01DX009 (ip), vehicle: Klucel (hydroxypropylcellulose) (HPC)
[5] = dose: 3.12 mg/kg/injection, schedule: Q01DX009 (ip), vehicle: Klucel (hydroxypropylcellulose) (HPC)
[6] = dose: 6.25 mg/kg/injection, schedule: Q01DX009 (ip), vehicle: Klucel (hydroxypropylcellulose) (HPC)
[7] = dose: 100.0 mg/kg/injection, schedule: Q01DX009 (ip), vehicle: Klucel (hydroxypropylcellulose) (HPC)
[8] = dose: 12.5 mg/kg/injection, schedule: Q01DX009 (ip), vehicle: saline with Tween-80
[9] = dose: 25.0 mg/kg/injection, schedule: Q01DX009 (ip), vehicle: saline with Tween-80
[10] = dose: 50.0 mg/kg/injection, schedule: Q01DX009 (ip), vehicle: saline with Tween-80
[11] = dose: 100.0 mg/kg/injection, schedule: Q01DX009 (ip), vehicle: saline with Tween-80
[12] = dose: 400.0 mg/kg/injection, schedule: Q01DX009 (ip), vehicle: Klucel (hydroxypropylcellulose) (HPC)
[13] = dose: 100.0 mg/kg/injection, schedule: Q01DX009 (ip), vehicle: saline
[14] = dose: 200.0 mg/kg/injection, schedule: Q01DX009 (ip), vehicle: saline
[15] = dose: 1.25 mg/kg/injection, schedule: Q01DX009 (ip), vehicle: Klucel (hydroxypropylcellulose) (HPC)
[16] = dose: 2.5 mg/kg/injection, schedule: Q01DX009 (ip), vehicle: Klucel (hydroxypropylcellulose) (HPC)

O=C1N(c2nncs2)CCN1[N+](=O)[O-]
T/C [1]: 91 % of control
T/C [2]: 102 % of control
T/C [3]: 100 % of control
T/C [4]: 87 % of control

Nc1nc(-c2ccccc2N=NN2CCN(N=Nc3ccccc3-c3nc(N)c4ccccc4n3)CC2)nc2ccccc12
T/C [5]: 95 % of control
T/C [6]: 92 % of control
T/C [1]: 107 % of control
T/C [2]: 107 % of control
T/C [3]: 113 % of control

Cc1nn(-c2ccccc2)c(N)c1C#N
T/C [2]: 100 % of control
T/C [3]: 93 % of control
T/C [7]: 103 % of control

CC[C@]1(O)C[C@H](OC2CC(N(C)C)C(OC3CC(O)C(O)C(C)O3)C(C)O2)c2c(cc3c(c2O)C(=O)c2c(O)ccc(O)c2C3=O)[C@H]1C(=O)OC (some centres undefined)
T/C (dose: 0.2 mg/kg/injection, schedule: Q01DX009 (ip), vehicle: carboxymethylcellulose (CMC)): 113 % of control
T/C (dose: 0.25 mg/kg/injection, schedule: Q01DX009 (ip), vehicle: saline with Tween-80): 120 % of control
T/C (dose: 0.4 mg/kg/injection, schedule: Q01DX009 (ip), vehicle: carboxymethylcellulose (CMC)): 94 % of control
T/C (dose: 1.0 mg/kg/injection, schedule: Q01DX009 (ip), vehicle: saline with Tween-80): 159 % of control
T/C (dose: 2.0 mg/kg/injection, schedule: Q01DX009 (ip), vehicle: saline with Tween-80): 179 % of control

CC(=O)Nc1ccc2c(c1)C[N+](C)(C1CCCCC1)CO2 (centres undefined)
T/C [8]: 106 % of control
T/C [9]: 113 % of control

COC(=O)CNC(=O)C(NC(=O)C1CCCN1C(=O)OCc1ccccc1)C(C)C (stereo not drawn) (Cbz-Pro-Val-Gly-OMe; configuration not given here)
T/C [10]: 91 % of control
T/C [11]: 88 % of control

O=[N+]([O-])c1cccc(N=Cc2ccccc2)c1
T/C (dose: 66.0 mg/kg/injection, schedule: Q01DX009 (ip), vehicle: Klucel (hydroxypropylcellulose) (HPC)): 102 % of control
T/C (dose: 150.0 mg/kg/injection, schedule: Q01DX009 (ip), vehicle: Klucel (hydroxypropylcellulose) (HPC)): 122 % of control

C/C(=N\[N+](C)(C)C)c1ccc2ccccc2c1
T/C [2]: 93 % of control
T/C [3]: 100 % of control

O=Nc1c(O)ccc2ccccc12
T/C [2]: 90 % of control
T/C [3]: 93 % of control

CCC1OCC(C(Cl)CCl)O1 (centres undefined)
T/C [1]: 90 % of control and 97 % of control
T/C [2]: 88 % of control and 109 % of control
T/C [3]: 86 % of control and 97 % of control
T/C [7]: 94 % of control and 105 % of control
T/C [4]: 89 % of control and 117 % of control
T/C [12]: 105 % of control

CCN(CC)CCOC(=O)Cc1ccccc1
T/C [7]: 106 % of control
T/C [4]: 103 % of control
T/C [12]: 103 % of control

CNC=O
T/C [13]: 99 % of control
T/C [14]: 110 % of control

COc1cc(C(=O)Nc2ccc(N(C)C)cc2)cc(OC)c1OC
T/C (dose: 12.5 mg/kg/injection, schedule: Q04DX003 (ip), vehicle: saline): 119 % of control
T/C (dose: 50.0 mg/kg/injection, schedule: Q04DX003 (ip), vehicle: saline): 116 % of control
T/C (dose: 200.0 mg/kg/injection, schedule: Q04DX003 (ip), vehicle: saline): 108 % of control

COc1ccc2c(c1Oc1ccc([N+](=O)[O-])cc1[N+](=O)[O-])C13CCN(C)C(C2)C1CCC1(C3)OCCO1 (centres undefined)
T/C [7]: 111 % of control
T/C [4]: 86 % of control

CC[CH2][Sn]([Cl])([Cl])[CH2]CC
T/C (dose: 0.5 mg/kg/injection, schedule: Q01DX009 (ip), vehicle: saline): 93 % of control and 100 % of control
T/C (dose: 1.0 mg/kg/injection, schedule: Q01DX009 (ip), vehicle: saline): 89 % of control and 100 % of control
T/C (dose: 2.0 mg/kg/injection, schedule: Q01DX009 (ip), vehicle: saline): 93 % of control

CN(C)c1ccc2c(c1)C(Br)c1ccccc1-2 (centres undefined)
T/C (dose: 6.25 mg/kg/injection, schedule: Q04DX003 (ip), vehicle: Klucel (hydroxypropylcellulose) (HPC)): 102 % of control
T/C (dose: 12.5 mg/kg/injection, schedule: Q04DX003 (ip), vehicle: Klucel (hydroxypropylcellulose) (HPC)): 105 % of control
T/C (dose: 25.0 mg/kg/injection, schedule: Q04DX003 (ip), vehicle: Klucel (hydroxypropylcellulose) (HPC)): 97 % of control

O=Cc1ccc(/C=C2\C=Cc3ccccc32)cc1
T/C [11]: 97 % of control

O=C1OC(c2ccc([N+](=O)[O-])cc2)=N/C1=C\c1ccc(Cl)cc1
T/C [2]: 102 % of control
T/C [3]: 86 % of control

C=CCNc1ccc(C)cc1
T/C [1]: 105 % of control
T/C [2]: 96 % of control
T/C [3]: 88 % of control
T/C [7]: 91 % of control

O=C(CN1CC1)NCCCCCCCCNC(=O)CN1CC1
T/C [6]: 124 % of control
T/C [2]: 93 % of control

CC(CCC(=O)O)(c1cc(Cl)c(O)c(Cl)c1)c1cc(Cl)c(O)c(Cl)c1
T/C (dose: 25.0 mg/kg/injection, schedule: Q01DX009 (ip), vehicle: gum acacia): 98 % of control
T/C (dose: 50.0 mg/kg/injection, schedule: Q01DX009 (ip), vehicle: gum acacia): 115 % of control
T/C (dose: 100.0 mg/kg/injection, schedule: Q01DX009 (ip), vehicle: gum acacia): 122 % of control

CCN(CC)C(=S)SSC(=S)N(CC)CC
T/C (dose: 0.78 mg/kg/injection, schedule: Q01DX009 (ip), vehicle: Klucel (hydroxypropylcellulose) (HPC)): 110 % of control
T/C (dose: 1.56 mg/kg/injection, schedule: Q01DX009 (ip), vehicle: Klucel (hydroxypropylcellulose) (HPC)): 86 % of control
T/C [5]: 97 % of control
T/C [6]: 105 % of control
T/C [2]: 92 % of control

CCCCc1ccc(-n2c(C)c(COC(=O)NC)c(COC(=O)NC)c2C)cc1
T/C [2]: 159 % of control

CN=C(N)N/N=C(\C)c1ccc2oc3ccc(/C(C)=N/NC(N)=NC)cc3c2c1
T/C [8]: 106 % of control
T/C [9]: 113 % of control
T/C [10]: 102 % of control

CCN(CC)CCCC(C)Nc1cc(C)nc(Nc2nc3cc(Cl)c(Cl)cc3[nH]2)n1 (centres undefined)
T/C [15]: 94 % of control
T/C [16]: 95 % of control
T/C (dose: 5.0 mg/kg/injection, schedule: Q01DX009 (ip), vehicle: Klucel (hydroxypropylcellulose) (HPC)): 96 % of control
T/C (dose: 10.0 mg/kg/injection, schedule: Q01DX009 (ip), vehicle: Klucel (hydroxypropylcellulose) (HPC)): 91 % of control

CS(=O)(=O)[O-].CS(=O)(=O)[O-].NC1CCCCC1N.[Pt+4] (centres undefined)
T/C (dose: 0.62 mg/kg/injection, schedule: Q01DX009 (ip), vehicle: other): 124 % of control
T/C (dose: 1.25 mg/kg/injection, schedule: Q01DX009 (ip), vehicle: other): 159 % of control

COc1cc(NC(=O)CC(C)=O)cc(OC)c1OC
T/C [13]: 112 % of control
T/C (dose: 132.0 mg/kg/injection, schedule: Q01DX009 (ip), vehicle: saline with Tween-80): 100 % of control
T/C (dose: 200.0 mg/kg/injection, schedule: Q01DX009 (ip), vehicle: saline with Tween-80): 95 % of control
T/C (dose: 300.0 mg/kg/injection, schedule: Q01DX009 (ip), vehicle: saline with Tween-80): 95 % of control
T/C (dose: 400.0 mg/kg/injection, schedule: Q01DX009 (ip), vehicle: saline): 90 % of control

CCCCCCCCCCCCc1ccc(CS)cc1
T/C [13]: 92 % of control
T/C [14]: 89 % of control

COC1CC(CC2CCC(C)C(C(C)C(=O)O)O2)OC2(OC(C)(C3CCC(C)(C4OC(C5OC(O)(CO)C(C)CC5C)CC4C)O3)CC2C)C1C (centres undefined)
T/C (dose: 0.31 mg/kg/injection, schedule: Q01DX009 (ip), vehicle: Klucel (hydroxypropylcellulose) (HPC)): 102 % of control
T/C (dose: 0.63 mg/kg/injection, schedule: Q01DX009 (ip), vehicle: Klucel (hydroxypropylcellulose) (HPC)): 89 % of control
T/C [15]: 92 % of control
T/C [16]: 92 % of control

O=C1c2ccccc2C(=O)c2c(NCCNCCNCCO)ccc(NCCNCCNCCO)c21
T/C (dose: 8.0 mg/kg/injection, schedule: Q01DX009 (ip), vehicle: acid diluted with saline): 97 % of control
T/C (dose: 16.0 mg/kg/injection, schedule: Q01DX009 (ip), vehicle: acid diluted with saline): 101 % of control
T/C (dose: 32.0 mg/kg/injection, schedule: Q01DX009 (ip), vehicle: acid diluted with saline): 103 % of control
T/C (dose: 64.0 mg/kg/injection, schedule: Q01DX009 (ip), vehicle: acid diluted with saline): 100 % of control
T/C (dose: 128.0 mg/kg/injection, schedule: Q01DX009 (ip), vehicle: acid diluted with saline): 98 % of control

CCCCCCCCCCCCCCCCCC(=O)[O][Hg][c]1ccccc1
T/C (dose: 6.25 mg/kg/injection, schedule: Q01DX009 (ip), vehicle: saline with Tween-80): 97 % of control
T/C [8]: 105 % of control
